One experiment deals with T1, ACAT (Rattus norvegicus, UniProt Q7TQM4).
T1 construct: using hepatic microsomes as the source of both ACAT and cholesterol; from tissue; host or cells: liver microsomes of male CD rats fed a 0.8% cholesterol/0.2% cholic acid diet
T1 sequence (Q7TQM4 1-524): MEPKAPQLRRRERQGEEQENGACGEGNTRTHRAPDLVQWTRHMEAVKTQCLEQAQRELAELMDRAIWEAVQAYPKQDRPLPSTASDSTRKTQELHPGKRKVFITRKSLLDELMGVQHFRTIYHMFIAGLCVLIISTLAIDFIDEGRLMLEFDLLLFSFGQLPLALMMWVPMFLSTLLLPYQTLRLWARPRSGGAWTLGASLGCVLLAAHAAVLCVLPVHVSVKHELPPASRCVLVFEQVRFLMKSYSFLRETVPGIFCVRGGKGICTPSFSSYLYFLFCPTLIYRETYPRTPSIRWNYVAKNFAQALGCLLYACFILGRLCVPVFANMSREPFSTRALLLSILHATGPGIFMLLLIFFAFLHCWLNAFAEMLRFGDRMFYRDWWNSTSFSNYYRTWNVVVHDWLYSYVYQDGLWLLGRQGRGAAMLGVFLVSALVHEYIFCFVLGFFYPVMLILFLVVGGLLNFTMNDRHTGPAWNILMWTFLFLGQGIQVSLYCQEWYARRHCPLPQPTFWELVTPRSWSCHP
Put plainly: In vitro assay for the inhibition of ACAT activity. The experiment is classed as biochemical. The following applies: hepatic microsomes of cholesterol/cholic acid fed male CD rats; [14C]oleoyl-CoA 25 μM. Here is the method: (i) In vitro assay for the inhibition of ACAT activity
ACAT activity was determined as described by Ross et al by the incorporation of [^14 C]oleoyl-CoA into cholesterol [^14 C]oleate using hepatic microsomes as the source of both ACAT and cholesterol. Microsomes were prepared from the livers of male CD rats fed a 0.8% cholesterol/0.2% cholic acid diet 3.5 days before sacrifice. Various concentrations of a test compound were preincubated with a 0.5mg/ml microsomal suspension and after 15 minutes a 50 μg aliquot was removed and incubated with 25 μM of [^14 C]-enriched oleoyl-CoA for 4 minutes. The reaction was terminated by the addition of 1 ml of ethanol and 4ml of hexane. After shaking, the hexane layer was removed and evaporated to dryness. The hexane extract was then reconstituted in 150 μl of HPLC solvent and injected on to a B&J OD5 Reverse Phase C18 column using an isocratic mobile phase of acetonitrile: isopropanol:heptane (50:40:10) in 0.5% acetic acid at a flow rate of 1.0 ml/min. The product of the reaction, [14C]oleoyl cholesterol, was measured using a Flow One radiometric detector.
The ACAT IC50 value for each compound was determined from a plot of % inhibition from control vs inhibitor concentration.

Experiment [1] concerns cholesterol-cholic acid fed rats. As to the kind of experiment: Determination of hypolipidaemic activity in cholesterol-cholic acid fed rats. Format: in vivo, rat. The following applies: male Sprague-Dawley rats on 0.4% cholesterol, 0.2% cholic acid diet, serum on fourth day. An excerpt: (ii) Determination of hypolipidaemic activity in cholesterol-cholic acid fed rats
Male Sprague-Dawley rats (CD, Charles River) each weighing 200-300 g were used. Hypercholesterolemia was induced in the rats by administration of a diet enriched to 0.4% cholesterol, 0.2% cholic acid. Prior to the administration of the diet, blood samples were collected under halothane anesthesia by cardiac puncture to determine baseline lipid levels. The blood was allowed to clot and serum was obtained for the analysis of total cholesterol, dextran-precipitable lipoproteins cholesterol (VLDL +LDL) and total triglycerides. The rats were divided into groups so that each group had similar average baseline serum lipid levels. Five days after the initial blood sampling, administration of each test compound and the cholesterol-cholic acid-enriched diet was begun. Compounds to be tested by gavage were administered b.i.d. in 0.5% methyl cellulose at 9:00 a.m. and 3:00 p.m. for three days and at 9:00 a.m. on the fourth day. Compounds administered as part of the diet were dissolved in ethanol and sprayed on to the diet. The ethanol was allowed to evaporate and the diet given to the rats for three days. On the fourth day, blood samples were collected and the final serum lipid levels determined. All blood samplings were taken after a four-hour fast. […]

By IC50 is commonly meant the concentration needed to halve the response being measured. Low values mean greater potency in that assay, high ones weaker potency in that assay. At ACAT, `CCCCCCCN(Cc1ccc(OCC(OC)OC)cc1)C(=O)Nc1ccc(OC)cc1OC` [Synthetic Example 1] yielded an IC50 of 27 nM. Further, the “reduction of LDL-cholesterol” value in experiment [1] (dose of 25 mg/kg) is reported as 78%; in experiment [1] (dose of 50 mg/kg) it was 92%.
